Measured values from ChEMBL document CHEMBL1156868, “One step radiosynthesis of 6-[(18)F]fluoronicotinic acid 2,3,5,6-tetrafluorophenyl ester ([(18)F]F-Py-TFP): a new prosthetic group for efficient labeling of biomolecules with fluorine-18” (J Med Chem, 2010).

Target: Integrin alpha-V/beta-3 (Homo sapiens, UniProt P05106+P06756)
Assay: Displacement of [125I]echistatin from alphaVbeta3 receptor in human EA-Hy926 cells by gamma-counting
Assay type: cell-based

Sequence of Integrin alpha-V/beta-3 (P05106 27-788 limits assumed): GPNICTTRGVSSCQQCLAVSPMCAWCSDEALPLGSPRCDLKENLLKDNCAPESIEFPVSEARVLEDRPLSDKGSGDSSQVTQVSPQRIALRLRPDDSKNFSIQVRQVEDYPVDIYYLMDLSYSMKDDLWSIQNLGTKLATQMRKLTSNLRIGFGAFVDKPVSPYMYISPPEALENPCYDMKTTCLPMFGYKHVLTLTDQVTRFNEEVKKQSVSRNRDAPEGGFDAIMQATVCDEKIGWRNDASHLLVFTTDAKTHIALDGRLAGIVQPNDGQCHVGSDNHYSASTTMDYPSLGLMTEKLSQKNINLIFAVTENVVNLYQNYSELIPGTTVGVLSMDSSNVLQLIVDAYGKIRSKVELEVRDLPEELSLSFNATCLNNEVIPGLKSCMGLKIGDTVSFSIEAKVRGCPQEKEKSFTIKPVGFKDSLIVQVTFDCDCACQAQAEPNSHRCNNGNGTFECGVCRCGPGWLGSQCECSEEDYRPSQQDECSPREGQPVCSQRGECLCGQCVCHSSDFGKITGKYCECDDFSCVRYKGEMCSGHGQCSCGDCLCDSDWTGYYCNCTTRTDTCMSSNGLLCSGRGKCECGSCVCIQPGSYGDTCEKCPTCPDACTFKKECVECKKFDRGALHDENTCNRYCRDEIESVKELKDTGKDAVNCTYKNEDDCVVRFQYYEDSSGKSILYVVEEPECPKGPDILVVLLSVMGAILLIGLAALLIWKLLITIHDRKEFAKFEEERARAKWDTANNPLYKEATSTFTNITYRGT
Sequence of Integrin alpha-V/beta-3 (P06756 31-889 limits assumed): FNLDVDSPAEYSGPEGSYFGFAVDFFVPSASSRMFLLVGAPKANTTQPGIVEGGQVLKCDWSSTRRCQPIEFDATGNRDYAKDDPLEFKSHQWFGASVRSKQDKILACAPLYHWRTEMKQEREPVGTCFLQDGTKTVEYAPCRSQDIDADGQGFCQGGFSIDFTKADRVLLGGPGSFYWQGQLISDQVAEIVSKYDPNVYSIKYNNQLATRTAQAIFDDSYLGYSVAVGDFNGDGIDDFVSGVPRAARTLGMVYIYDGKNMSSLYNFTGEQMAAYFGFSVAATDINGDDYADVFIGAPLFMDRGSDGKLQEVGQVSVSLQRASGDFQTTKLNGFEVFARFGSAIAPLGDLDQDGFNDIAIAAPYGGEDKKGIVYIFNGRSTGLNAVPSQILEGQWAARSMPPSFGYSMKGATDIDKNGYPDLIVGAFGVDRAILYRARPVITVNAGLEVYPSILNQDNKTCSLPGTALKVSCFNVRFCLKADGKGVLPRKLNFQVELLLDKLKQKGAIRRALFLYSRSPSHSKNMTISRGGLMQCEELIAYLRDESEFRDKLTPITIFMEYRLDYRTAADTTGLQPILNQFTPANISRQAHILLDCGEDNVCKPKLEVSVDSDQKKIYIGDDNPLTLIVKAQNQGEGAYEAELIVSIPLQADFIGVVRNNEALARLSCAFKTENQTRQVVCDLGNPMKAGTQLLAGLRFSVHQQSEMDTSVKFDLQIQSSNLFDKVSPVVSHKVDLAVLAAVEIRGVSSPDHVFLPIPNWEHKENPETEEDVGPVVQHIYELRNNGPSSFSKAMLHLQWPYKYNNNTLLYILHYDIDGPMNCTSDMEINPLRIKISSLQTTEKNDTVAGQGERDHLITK
Sequence of Integrin alpha-V/beta-3 (P06756 891-1048 limits assumed): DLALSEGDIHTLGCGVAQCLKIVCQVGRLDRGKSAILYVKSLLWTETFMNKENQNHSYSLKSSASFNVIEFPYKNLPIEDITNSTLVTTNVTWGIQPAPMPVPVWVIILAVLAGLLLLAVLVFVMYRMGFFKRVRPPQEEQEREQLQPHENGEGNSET

Ki | Compound
0.0148 µM | Cc1cc(C)c(S(=O)(=O)N[C@H](CNC(=O)c2cn(CCCNC(=O)COCC(=O)NCCOCCOCCOCCOCCOCCOCCOCCOCCOCCOCCOCCNC(=O)c3ccc(F)nc3)c3cc(CNc4ncc[nH]4)ccc3c2=O)C(=O)O)c(C)c1
0.002 µM | NC(=O)COCC(=O)NCCOCCOCCOCCNC(=O)[C@@H]1CSCC(=O)N[C@@H](CCCCNC(=O)COCC(=O)NCCOCCOCCOCCOCCOCCNC(=O)CONC(=O)c2ccc(F)nc2)C(=O)N[C@H]2CSSC[C@H](NC(=O)[C@H](CC(=O)O)NC(=O)CNC(=O)[C@H](CCCN=C(N)N)NC2=O)C(=O)N[C@@H](Cc2ccccc2)C(=O)C1
0.0191 µM | Cc1cc(C)c(S(=O)(=O)N[C@H](CNC(=O)c2cn(CCCNC(=O)c3ccc(F)nc3)c3cc(CNc4ncc[nH]4)ccc3c2=O)C(=O)O)c(C)c1
